The target in test [1] is T1, Hsp70 (Heat Shock Protein 70 1A) (Homo sapiens, UniProt P0DMV8).
T1 construct: gene HSPA1A; recombinant Hsp70 immobilized on CM5 chip
Kind of test: SPR (Biacore […]), single-site model. Format: binding. (In general: Surface plasmon resonance follows binding to a sensor surface in real time, without labels.)

In test [2] the target is T1, Hsp70 (Heat Shock Protein 70 1A). Kind of test: SPR (Biacore […]), single-site model; positive control. Format: binding.

Structures are written as SMILES.

T1 sequence (P0DMV8 2-641): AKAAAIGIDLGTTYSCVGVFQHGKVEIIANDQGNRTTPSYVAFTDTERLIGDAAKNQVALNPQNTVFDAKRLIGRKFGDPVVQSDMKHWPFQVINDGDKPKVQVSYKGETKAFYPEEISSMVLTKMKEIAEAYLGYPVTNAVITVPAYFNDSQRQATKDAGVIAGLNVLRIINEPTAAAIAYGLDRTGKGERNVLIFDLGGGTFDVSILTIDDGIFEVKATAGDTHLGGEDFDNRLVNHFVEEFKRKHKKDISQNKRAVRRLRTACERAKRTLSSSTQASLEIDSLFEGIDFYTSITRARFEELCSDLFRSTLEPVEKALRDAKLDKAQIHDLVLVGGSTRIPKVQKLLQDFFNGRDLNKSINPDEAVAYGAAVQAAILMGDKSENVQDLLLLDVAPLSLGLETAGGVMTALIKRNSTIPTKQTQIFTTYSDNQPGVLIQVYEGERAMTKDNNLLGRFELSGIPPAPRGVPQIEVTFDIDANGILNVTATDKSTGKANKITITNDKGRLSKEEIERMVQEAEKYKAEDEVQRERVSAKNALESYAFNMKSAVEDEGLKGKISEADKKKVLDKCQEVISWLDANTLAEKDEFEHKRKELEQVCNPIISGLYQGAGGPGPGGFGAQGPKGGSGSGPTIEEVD

Compound `CC1=CCC2C(C)(C)CCCC2(C)C1CC(O)C1=CC(=O)OC1` (single isomer, unassigned; ent-12) [compound 4, ent-12-hydroxylabda-7,13-dien-15,16-olide] gave a Kd in test [1] of 1000 nM.
Compound `C=C1C(=O)[C@]23[C@H](O)[C@H]1CC[C@H]2[C@@]12CO[C@]3(O)[C@@H](O)[C@@H]1C(C)(C)CC[C@@H]2O` [oridonin] had a Kd in test [2] of 81.4 nM.

As a reminder, the Kd is a measure of binding affinity in units of concentration. A lower Kd goes with higher affinity.
